Values after ≈ are worked out from the molar mass of the structure shown. Where two headings read alike, the source gives them in different places.

The test system of test [1] is C. albicans. Description: Susceptibility of clinical isolates (MIC, broth dilution). The format is cell-based. The following applies: Candida albicans; C. albicans (n = 20); M27-A3, 24 hrs; read at 50% inhibition (potassium salt, Voriconazole), 100% (Amphotericin), MEC (Caspofungin); read-out: MIC90. On the procedure: (§1) The efficacy of compound IV″ was investigated on 563 clinical isolates of 33 human fungal pathogens. […] For species with n≧10, the MIC90 (MIC, minimal inhibitory concentration) is given as ng/ml. For species with n≦10, the MIC range is given as ng/ml. 24 h and 48 h reads are indicated (Table 1).
(§2) The in vitro efficacy of antifungal compounds is determined in susceptibility assays, which are indicative for the spectrum and potency of a compound. Susceptibilities are reported as minimal inhibitory concentrations (MIC, as ng/ml or μg/ml) required to inhibit growth to a defined degree compared to the drug free control. The MIC90 defines the MIC required to inhibit growth for ≧90% of the strains of a population tested.
(§3) The MIC90 was calculated for the indicated species.
Background: Broth dilution looks for growth in wells or tubes with falling amounts of substance.

In the next test the test system is C. dubliniensis. Described as above. The format is cell-based. The conditions noted are these: Candida dubliniensis; C. dubliniensis (n = 25); M27-A3, 24 hrs; read at 50% inhibition (potassium salt, Voriconazole), 100% (Amphotericin), MEC (Caspofungin); read-out: MIC90. The method, then: as §1, §2, §3
The subject of the next test is C. glabrata. Described as above. The following applies: Nakaseomyces glabratus; C. glabrata (n = 25); M27-A3, 24 hrs; read at 50% inhibition (potassium salt, Voriconazole), 100% (Amphotericin), MEC (Caspofungin); read-out: MIC90. The test is classed as cell-based. The method, then: as §1, §2, §3
The next test deals with C. krusei. Described as above. The test is classed as cell-based. The conditions noted are these: Pichia kudriavzevii; C. krusei (n = 27); M27-A3, 24 hrs; read at 50% inhibition (potassium salt, Voriconazole), 100% (Amphotericin), MEC (Caspofungin); read-out: MIC90. The method, then: as §1, §2, §3
In a further test the test system is C. lusitaniae. The description is as above. The format is cell-based. The conditions noted are these: Clavispora lusitaniae; C. lusitaniae (n = 24); M27-A3, 24 hrs; read at 50% inhibition (potassium salt, Voriconazole), 100% (Amphotericin), MEC (Caspofungin); read-out: MIC90. On the procedure: as §1, §2, §3
For the next test, the system named is C. parapsilosis. Described as above. The test is classed as cell-based. The following applies: Lodderomyces parapsilosis; C. parapsilosis (n = 37); M27-A3, 24 hrs; read at 50% inhibition (potassium salt, Voriconazole), 100% (Amphotericin), MEC (Caspofungin); read-out: MIC90. The method, then:
as §1, §2, §3

In another test the test system is C. tropicalis. Described as above. The format is cell-based. The following applies: Candida tropicalis; C. tropicalis (n = 35); M27-A3, 24 hrs; read at 50% inhibition (potassium salt, Voriconazole), 100% (Amphotericin), MEC (Caspofungin); read-out: MIC90. The method, then:
as §1, §2, §3

Test [2] has as its system C. albicans, Fluconazole, Voriconazole, Itraconazole and/or Caspofungin resistant isolates. Description: Susceptibility of resistant clinical isolates (MIC, broth dilution). The format is cell-based. The conditions noted are these: Candida albicans; C. albicans resistant (n = 20): isolates resistant to Fluconazole, Itraconazole and Caspofungin; read-out: MIC90.
Test [3] relates to C. glabrata, Fluconazole, Voriconazole, Itraconazole and/or Caspofungin resistant isolates. The test is described as above. The format is cell-based. The following applies: Nakaseomyces glabratus; C. glabrata resistant (n = 21): isolates resistant to Fluconazole, Itraconazole, Voriconazole and Caspofungin; read-out: MIC90. On the procedure: as §1, §3
In another test the test system is A. flavus. Description: Susceptibility of clinical Aspergillus isolates (MIC). The format is cell-based. The conditions noted are these: Aspergillus flavus; A. flavus (n = 2); CLSI M38-A2; 50% growth inhibition; 24 h; read-out: MIC50. On the procedure: as §1
(§4) Susceptibilities were determined according to the CLSI reference method M38-A2.

In a further test the test system is A. fumigatus. The test is described as above. The test is classed as cell-based. The following applies: Aspergillus fumigatus; A. fumigatus (n = 20); CLSI M38-A2; 50% growth inhibition; 24 h; read-out: MIC50. On the procedure: as §1, §4
The subject of a further test is A. nidulans. Described as above. The test is classed as cell-based. The conditions noted are these: A. nidulans (n = 3), CLSI M38-A2, 50% growth inhibition, 24 h, read-out: MIC50. On the procedure: as §1, §4
Another test relates to A. niger. Described as above. The format is cell-based. The following applies: A. niger (n = 6), CLSI M38-A2, 50% growth inhibition, 24 h, read-out: MIC50. On the procedure: as §1, §4
The next test has as its system A. terreus. The description is as above. The format is cell-based. The following applies: Aspergillus terreus; A. terreus (n = 5); CLSI M38-A2; 50% growth inhibition; 24 h; read-out: MIC50. The method, then:
as §1, §4

The subject of the next test is A. versicolor. Described as above. The test is classed as cell-based. The conditions noted are these: Aspergillus versicolor; A. versicolor (n = 3); CLSI M38-A2; 50% growth inhibition; 24 h; read-out: MIC50. The method, then: as §1, §4
The test system of a further test is Coccidioides spp. In words: microbe, parasite or virus in culture. The following applies: Coccidioides, 48 h. The test is classed as cell-based.
The test system of the next test is B. dermatitidis. In words: Susceptibility of clinical dimorphic fungi (MIC). The format is cell-based. The following applies: Blastomyces dermatitidis; B. dermatitidis (n = 30); CLSI M38-A2; 50% growth reduction; MIC read at 96 h.
A further test concerns H. capsulatum. In words: microbe, parasite or virus in culture. The following applies: Histoplasma capsulatum, 120 h. The test is classed as cell-based.
A further test relates to Candida albicans. In words: In vitro fungicidal activity vs. Candida albicans. The conditions noted are these: Candida albicans.
Test [4] relates to C. albicans. Description: Fatty acid competition (antagonism) in 96-well plates. The following applies: 48 h.

A word on the MIC50: it is the lowest concentration that inhibits either 50% of growth or 50% of the strains tested, depending on the study. In the case of `C[C@@H]1[C@H](O)[C@@H](C)/C=C/C=C/C=C/C=C/C=C/C=C/C=C/[C@H](O[C@@H]2O[C@H](C)[C@@H](O)[C@H](N)[C@@H]2O)C[C@@H]2O[C@](O)(C[C@@H](O)C[C@@H](O)[C@H](O)CC[C@@H](O)C[C@@H](O)CC(=O)O[C@H]1C)C[C@H](O)[C@H]2C(=O)O` [Amphotericin B], the MIC90 turned out to be 0.5 µg/mL in the test with C. albicans [1]; 1 µg/mL in the test with C. dubliniensis; 2 µg/mL in the test with C. glabrata; 4 µg/mL in the test with C. krusei; 1 µg/mL in the test with C. lusitaniae; 0.5 µg/mL in the test with C. parapsilosis. Besides, the MIC90 in the test with C. tropicalis was determined as 1 µg/mL; in test [2] it was 0.5 µg/mL (≈ 0.541 µM); in test [3], 2 µg/mL (≈ 2.16 µM); against Coccidioides spp., 0.5 µg/mL (≈ 0.541 µM); against B. dermatitidis, 0.25 µg/mL (≈ 0.271 µM); against H. capsulatum it was 0.125 µg/mL (≈ 0.135 µM). The MIC90 in the test with Candida albicans (24 h, read-out: MIC90 24 h) came to 0.2 µg/mL (≈ 0.216 µM); in the test with Candida albicans (48 h, read-out: MIC90 48 h) it was 0.8 µg/mL (≈ 0.866 µM). The MIC50 was 2 µg/mL (≈ 2.16 µM) in the test with A. flavus; 0.5 µg/mL (≈ 0.541 µM) in the test on A. fumigatus; 2 µg/mL (≈ 2.16 µM) in the test on A. nidulans; 1 µg/mL (≈ 1.08 µM) in the test on A. niger; 2 µg/mL (≈ 2.16 µM) in the test on A. terreus; 2 µg/mL (≈ 2.16 µM) with A. versicolor. Also, the “Fungicidal Concentration” value with Candida albicans came out at 800 ng/mL. In the test with C. albicans [4], the “effect of oleic acid / stearic acid on susceptibility” value is on record as “oleic acid did not decrease the susceptibility”.

Source of the values: patent US8722910B2, “Diyne compositions” (Evolva AG, priority 2009, dated 2014).
